Measurements as given in PMC4854315, “Discovery of a novel allosteric inhibitor-binding site in ERK5: comparison with the canonical kinase hinge ATP-binding site” (Acta Crystallographica. Section D, Structural Biology, 2016).
Read-outs that look alike come from different tables or passages of the source.

Columns and labels:
ERK5 signalling = system: ERK5 signalling; set-up: method as in Gavine et al., 2015; conditions: HEK293 cell line stably co-expressing MEK5CA and ERK5; ref Gavine et al., 2015; cited from earlier work
recombinant human ERK5 = biological target: T1, recombinant human ERK5 (Homo sapiens, UniProt Q13164); experiment: TR-FRET (LANCE Ultra) biochemical assay of ERK5 kinase activity
T1 construct: Catalytically active kinase domain of recombinant human ERK5 enzyme was purchased from Carna Biosciences; purchased Carna Biosciences
Procedure: Catalytically active kinase domain of recombinant human ERK5 enzyme was purchased from Carna Biosciences. […] The inhibitory potency of compounds against ERK5 was evaluated using the LANCE Ultra technology from PerkinElmer according to the manufacturer’s instructions. Briefly, 3 µl of different concentrations of ATP and 100 nM ULight-eIF4E-binding protein 1 (Thr37/46) peptide (Perkin-Elmer catalogue No. TRF0128) were incubated in the presence of serially diluted compound or DMSO control at room temperature in 384-well Greiner white polystyrene assay plates. The reaction was initiated by the addition of 3 µl of 10 nM kinase. The assay buffer consisted of 1 mM DTT, 10 mM MgCl2, 1 mM EGTA, 0.01%(v/v) Tween 20 in 50 mM HEPES pH 7.5. After 60 min incubation, the reaction was stopped by the addition of 6 µl stop/detection reagent mixture consisting of 20 mM EDTA and 4 nM Eu-anti-phospho-eIF4E-binding protein 1 (Thr37/46) antibody (PerkinElmer catalogue No. TRF0216) diluted in detection buffer. The plates were incubated for 1 h before the fluorescence was measured at 615 and 665 nm with an excitation wavelength of 320 nm using an EnVision Multilabel Reader from Perkin-Elmer in time-resolved fluorescence resonance energy transfer (TR-FRET) mode. The calculated signal ratio at 665/615 nm is proportional to the kinase activity. The concentration of compound producing 50% inhibition of the kinase activity (IC50) was calculated by using GraphPad Prism to fit the data to a symmetrical sigmoidal curve.

[1] = TR-FRET enzymatic assay, phosphorylated ERK5, read-out: ERK5 IC50

T1 sequence (Q13164 55-347 limits assumed): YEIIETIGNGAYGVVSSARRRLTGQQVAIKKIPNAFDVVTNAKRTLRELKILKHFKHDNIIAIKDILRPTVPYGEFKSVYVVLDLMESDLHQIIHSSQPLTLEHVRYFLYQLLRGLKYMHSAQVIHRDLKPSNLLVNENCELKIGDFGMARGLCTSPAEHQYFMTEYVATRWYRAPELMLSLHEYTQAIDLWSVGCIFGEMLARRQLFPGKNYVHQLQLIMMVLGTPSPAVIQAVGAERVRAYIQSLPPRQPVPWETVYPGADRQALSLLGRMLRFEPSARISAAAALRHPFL

## XMD8-92 [Compound 2, reference compound]
ERK5 signalling
  Block of downstream ERK5 signalling: able to block downstream ERK5 signalling

## Cc1ncc(-c2nc(Nc3ccc(C(=O)NCCN4CCCCC4)cc3)ncc2F)n1C(C)C [Compound 3]
Recombinant human ERK5; [1]
  IC50: 0.042 µM

## Cc1cc(Nc2nc(N)nn2C(=O)NC(C)C)ccc1Cl [Compound 5]
Recombinant human ERK5; ATP-competition study, IC50 curves at different ATP concentrations
  Mode of ERK5 inhibition with respect to ATP: ATP-competitive
Recombinant human ERK5; ERK5 IC50 at [ATP] 20 µM, [ATP] 20 µM
  IC50: 2.3 µM
Recombinant human ERK5; ERK5 IC50 at [ATP] 40 µM, [ATP] 40 µM
  IC50: 2.9 µM
Recombinant human ERK5; ERK5 IC50 at [ATP] 60 µM, [ATP] 60 µM
  IC50: 3.1 µM
Recombinant human ERK5; ERK5 IC50 at [ATP] 200 µM, [ATP] 200 µM
  IC50: 4.1 µM
Recombinant human ERK5; ERK5 IC50 at [ATP] 1000 µM, [ATP] 1000 µM
  IC50: 9.9 µM
Recombinant human ERK5; ERK5 IC50 at [ATP] 2000 µM, [ATP] 2000 µM
  IC50: 14.8 µM
Recombinant human ERK5; [1]
  IC50: 2.3 µM
Recombinant human ERK5; [ATP] 80 µM, read-out: ERK5 IC50 at [ATP] 80 µM
  IC50: 3.4 µM
Recombinant human ERK5; [ATP] 500 µM, read-out: ERK5 IC50 at [ATP] 500 µM
  IC50: 6.3 µM
